Our source for the EC50 values is ChEMBL document CHEMBL1137993, “Novel histone deacetylase inhibitors: cyclic tetrapeptide with trifluoromethyl and pentafluoroethyl ketones” (Bioorg Med Chem Lett, 2004).

The term EC50 denotes the concentration giving half of the maximal effect. High values mean a less potent agent, low ones a more potent agent.

For this test, the system named is Nucleic Acid.

Each structure is given as a SMILES string.

`CC[C@H](C)[C@@H]1NC(=O)[C@@H](Cc2ccc(OC)cc2)NC(=O)[C@H](CCCCCC(=O)C(F)(F)F)NC(=O)[C@H]2CCCN2C1=O`: the EC50 turned out to be 3.09 µM. In the case of `CC[C@H](C)[C@@H]1NC(=O)[C@@H](Cc2ccc(OC)cc2)NC(=O)[C@H](CCCCCC(=O)C(F)(F)C(F)(F)F)NC(=O)[C@H]2CCCN2C1=O` it was 31.1 µM; in that of `CC(/C=C/C(=O)NO)=C\[C@@H](C)C(=O)c1ccc(N(C)C)cc1` [TRICHOSTATIN], 0.77 µM.
